These results are taken from patent publication US10131644B2, “Aryl sultam derivatives as RORc modulators” (Genentech, Inc., priority 2014, dated 2018).

For this test, the target named is T1, RORc (Homo sapiens, UniProt P51449).
T1 sequence (P51449 269-508 limits assumed): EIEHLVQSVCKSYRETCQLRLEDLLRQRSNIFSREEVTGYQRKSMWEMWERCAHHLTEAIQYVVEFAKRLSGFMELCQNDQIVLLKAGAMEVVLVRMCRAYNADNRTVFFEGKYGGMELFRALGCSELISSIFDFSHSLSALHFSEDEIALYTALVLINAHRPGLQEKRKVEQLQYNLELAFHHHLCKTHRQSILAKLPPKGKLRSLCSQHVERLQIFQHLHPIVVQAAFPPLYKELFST
Kind of test: In vitro RORc ligand binding assay (25-[3H]hydroxycholesterol displacement). As to conditions: IC50, IC50 values for RORc; unit inferred.
Broadly, the IC50 is the concentration that gives 50% inhibition. With `C[C@H]1CC[C@H](c2ccccc2)S(=O)(=O)N1Cc1ccc([C@]2(C#N)CC[C@@H](n3cnnc3)CC2)cc1` [Example 10, 1-[4-((3S,6R)-3-Methyl-1,1-dioxo-6-phenyl-[1,2]thiazinan-2-ylmethyl)-phenyl]-4-[1,2,4]triazol-4-yl-cyclohexanecarbonitrile], the IC50 worked out at 150 nM.
In turn, `C[C@H]1CC[C@H](c2ccccc2)S(=O)(=O)N1Cc1ccc([C@]2(C(N)=O)C[C@@H](O)C2)cc1F` [Compound 183, 1-[3-fluoro-4-[[(3S,6R)-3-methyl-1,1-dioxo-6-phenyl-thiazinan-2-yl]methyl]phenyl]-3-hydroxy-cyclobutanecarboxamide] came in with an IC50 of 55.2 nM. This IC50 lies about 2.7-fold lower than the previous one.
The result for `C[C@H]1CC[C@H](c2ccccc2)S(=O)(=O)N1Cc1ccc(C2(C(C)(C)O)CCOCC2)cc1F` [Compound 76, 2-[4-[3-fluoro-4-[[(3S,6R)-3-methyl-1,1-dioxo-6-phenyl-thiazinan-2-yl]methyl]phenyl]tetrahydropyran-4-yl]propan-2-ol] reads 32.1 nM; that for `CC(=O)N1CCC(OCC(=O)O)(c2cc(F)c(CN3[C@@H](C)CC[C@H](c4ccccc4)S3(=O)=O)cc2F)CC1` [Compound 137, 2-[[1-acetyl-4-[2,5-difluoro-4-[[(3S,6R)-3-methyl-1,1-dioxo-6-phenyl-thiazinan-2-yl]methyl]phenyl]-4-piperidyl]oxy]acetic acid], 17.9 nM; that for `COCCCOCC1(c2ccc(CN3[C@@H](C)CC[C@H](c4ccccc4)S3(=O)=O)c(F)c2)CCOCC1` [Compound 91, (3S,6R)-2-[[2-fluoro-4-[4-(3-methoxypropoxymethyl)tetrahydro-pyran-4-yl]phenyl]methyl]-3-methyl-6-phenyl-thiazinane 1,1-dioxide], 103 nM.
`C[C@H](NC1(c2ccc(CN3[C@@H](C)CC[C@H](c4ccccc4)S3(=O)=O)c(F)c2)CCOCC1)C(N)=O` [Compound 185, (2S)-2-[[4-[3-fluoro-4-[[(3S,6R)-3-methyl-1,1-dioxo-6-phenyl-thiazinan-2-yl]methyl]phenyl]tetrahydropyran-4-yl]amino]propanamide] had an IC50 of 102 nM.
Molecule `C[C@H]1CC[C@H](c2ccccc2)S(=O)(=O)N1Cc1ccc(C2(OCC(=O)O)CCOCC2)cc1F` [Compound 110, 2-[4-[3-fluoro-4-[[(3S,6R)-3-methyl-1,1-dioxo-6-phenyl-thiazinan-2-yl]methyl]phenyl]tetrahydropyran-4-yl]oxyacetic acid] returned an IC50 of 62.9 nM. Compared with the last molecule, the IC50 is about 1.6-fold lower.
In turn, `C[C@H]1CC[C@H](c2ccccc2)S(=O)(=O)N1Cc1ccc(C2(C(=O)NCCCO)CCOCC2)cc1F` [Compound 54, 4-[3-fluoro-4-[[(3S,6R)-3-methyl-1,1-dioxo-6-phenyl-thiazinan-2-yl]methyl]phenyl]-N-(3-hydroxypropyl)tetrahydropyran-4-carboxamide] gave an IC50 of 79.8 nM.
`COC(=O)NCC1(c2ccc(CN3[C@@H](C)CC[C@H](c4ccccc4)S3(=O)=O)c(F)c2)CCOCC1` [Compound 73, methyl N-[[4-[3-fluoro-4-[[(3S,6R)-3-methyl-1,1-dioxo-6-phenyl-thiazinan-2-yl]methyl]phenyl]tetrahydropyran-4-yl]methyl]carbamate] registered an IC50 of 53.2 nM.
`C[C@H]1CC[C@H](c2ccccc2)S(=O)(=O)N1Cc1ccc(C2(CO)CCOCC2)cc1` [Compound 32, {4-[4-((3S,6R)-3-Methyl-1,1-dioxo-6-phenyl-[1,2]thiazinan-2-ylmethyl)-phenyl]-tetrahydro-pyran-4-yl}-methanol] came in with an IC50 of 310 nM. This IC50 is about 5.8-fold higher than that of the molecule before.
The result for `C[C@H]1CC[C@H](c2ccccc2)S(=O)(=O)N1Cc1ccc([C@]2(C(N)=O)CC[C@@H](n3cnnc3)CC2)cc1F` [Compound 25, 1-[3-Fluoro-4-((3S,6R)-3-methyl-1,1-dioxo-6-phenyl-[1,2]thiazinan-2-ylmethyl)-phenyl]-4-[1,2,4]triazol-4-yl-cyclohexanecarboxylic acid amide] reads 22 nM.
As for `C[C@H]1CC[C@H](c2ccccc2)S(=O)(=O)N1Cc1ccc(C2(C(=O)NCCC#N)CCOCC2)cc1F` [Compound 65, N-(2-cyanoethyl)-4-[3-fluoro-4-[[(3S,6R)-3-methyl-1,1-dioxo-6-phenyl-thiazinan-2-yl]methyl]phenyl]tetrahydropyran-4-carboxamide], the 50% inhibitory concentration (IC50) stood at 52.9 nM. This IC50 is about 2.4-fold higher than that of the molecule before.
Molecule `CC(=O)N1CCC(O)(c2ccc(CN3[C@@H](C)CC[C@H](c4ccccc4)S3(=O)=O)c(F)c2)CC1` [Example 9, 1-{4-[3-Fluoro-4-((3S,6R)-3-methyl-1,1-dioxo-6-phenyl-[1,2]thiazinan-2-ylmethyl)-phenyl]-4-hydroxy-piperidin-1-yl}-ethanone] displayed an IC50 of 130 nM. This IC50 is about 2.5-fold higher than that of the molecule before.
Regarding `C[C@H]1CC[C@H](c2ccccc2)S(=O)(=O)N1Cc1ccc(C2(C#N)CC(=O)C2)cc1F` [Compound 162, 1-[3-fluoro-4-[[(3S,6R)-3-methyl-1,1-dioxo-6-phenyl-thiazinan-2-yl]methyl]phenyl]-3-oxo-cyclobutanecarbonitrile], the IC50 was determined as 63.9 nM.
The result for `C[C@H]1CC[C@H](c2ccccc2)S(=O)(=O)N1Cc1ccc(C2(CNS(C)(=O)=O)CCOCC2)cc1F` [Compound 71, N-[[4-[3-fluoro-4-[[(3S,6R)-3-methyl-1,1-dioxo-6-phenyl-thiazinan-2-yl]methyl]phenyl]tetrahydropyran-4-yl]methyl]methanesulfonamide] reads 76.7 nM; that for `C[C@H]1CC[C@H](c2ccccc2)S(=O)(=O)N1Cc1ccc(C2(C(N)=O)CC(F)(F)C2)cc1F` [Compound 167, 3,3-difluoro-1-[3-fluoro-4-[[(3S,6R)-3-methyl-1,1-dioxo-6-phenyl-thiazinan-2-yl]methyl]phenyl]cyclobutanecarboxamide], 11.1 nM.
The result for `CC(=O)N1CC(OCC(N)=O)(c2cc(F)c(CN3[C@@H](C)CC[C@H](c4ccccc4)S3(=O)=O)cc2F)C1` [Compound 175, 2-[1-acetyl-3-[2,5-difluoro-4-[[(3S,6R)-3-methyl-1,1-dioxo-6-phenyl-thiazinan-2-yl]methyl]phenyl]azetidin-3-yl]oxyacetamide] reads 4.9 nM; that for `C[C@H]1CC[C@H](c2ccccc2)S(=O)(=O)N1Cc1ccc(C2(C#N)CCOCC2)cc1` [Compound 30, 4-[4-((3S,6R)-3-Methyl-1,1-dioxo-6-phenyl-[1,2]thiazinan-2-ylmethyl)-phenyl]-tetrahydro-pyran-4-carbonitrile], 680 nM.
The molecule `C[C@@H](O)CNC(=O)C1(c2ccc(CN3[C@@H](C)CC[C@H](c4ccccc4)S3(=O)=O)c(F)c2)CCOCC1` [Compound 66] gave an IC50 of 47.4 nM.
Turning to `C[C@H]1CC[C@H](c2ccccc2)S(=O)(=O)N1Cc1cc(F)c(C2(OCC(N)=O)COC2)cc1F` [Compound 138, 2-[3-[2,5-difluoro-4-[[(3S,6R)-3-methyl-1,1-dioxo-6-phenyl-thiazinan-2-yl]methyl]phenyl]oxetan-3-yl]oxyacetamide], the IC50 worked out at 2.6 nM.
`CC(OC1(c2ccc(CN3[C@@H](C)CC[C@H](c4ccccc4)S3(=O)=O)c(F)c2)CCOCC1)C(N)=O` (stereo partly drawn) [Compound 174, 2-[4-[3-fluoro-4-[[(3S,6R)-3-methyl-1,1-dioxo-6-phenyl-thiazinan-2-yl]methyl]phenyl]tetrahydropyran-4-yl]oxypropanamide] showed a 50% inhibitory concentration (IC50) of 37.9 nM.
The result for `CC(=O)N(C)CC1(c2ccc(CN3[C@@H](C)CC[C@H](c4ccccc4)S3(=O)=O)c(F)c2)CCOCC1` [Compound 80, N-[[4-[3-fluoro-4-[[(3S,6R)-3-methyl-1,1-dioxo-6-phenyl-thiazinan-2-yl]methyl]phenyl]tetrahydropyran-4-yl]methyl]-N-methyl-acetamide] reads 104 nM.
As for `C[C@H]1CC[C@H](c2ccccc2)S(=O)(=O)N1Cc1ccc(C2(/C=C/C#N)CCOCC2)cc1F` [Compound 72, (E)-3-[4-[3-fluoro-4-[[(3S,6R)-3-methyl-1,1-dioxo-6-phenyl-thiazinan-2-yl]methyl]phenyl]tetrahydropyran-4-yl]prop-2-enenitrile], the IC50 was found to be 8.7 nM.
In turn, `C[C@H]1CC[C@H](c2ccccc2)S(=O)(=O)N1Cc1cc(F)c(C2(CO)CC2)cc1F` [Compound 126, [1-[2,5-difluoro-4-[[(3S,6R)-3-methyl-1,1-dioxo-6-phenyl-thiazinan-2-yl]methyl]phenyl]cyclopropyl]methanol] showed an IC50 of 49.9 nM.
`C[C@H]1CC[C@H](c2ccccc2)S(=O)(=O)N1Cc1cc(F)c(C2(CCC(N)=O)CC2)cc1F` [Compound 139, 3-[1-[2,5-difluoro-4-[[(3S,6R)-3-methyl-1,1-dioxo-6-phenyl-thiazinan-2-yl]methyl]phenyl]cyclopropyl]propanamide]: the IC50 was 23.7 nM.
`CC(=O)N[C@H]1CC[C@](C#N)(c2ccc(CN3[C@@H](C)CC[C@@H](c4ccccc4)S3(=O)=O)c(F)c2)CC1` [Compound 33, N-{4-Cyano-4-[3-fluoro-4-((3S,6S)-3-methyl-1,1-dioxo-6-phenyl-[1,2]thiazinan-2-ylmethyl)-phenyl]-cyclohexyl}-acetamide]: the IC50 turned out to be 1800 nM.
The result for `C[C@H]1CC[C@H](c2ccccc2)S(=O)(=O)N1Cc1ccc(C2(C(=O)NCC(=O)N(C)C)CCOCC2)cc1F` [Compound 56, N-[2-(dimethylamino)-2-oxo-ethyl]-4-[3-fluoro-4-[[(3S,6R)-3-methyl-1,1-dioxo-6-phenyl-thiazinan-2-yl]methyl]phenyl]tetrahydropyran-4-carboxamide] reads 403 nM; that for `C[C@H]1CC[C@H](c2ccccc2)S(=O)(=O)N1Cc1cc(F)c(C2(CCC(=O)N(C)C)CC2)cc1F` [Compound 147, 3-[1-[2,5-difluoro-4-[[(3S,6R)-3-methyl-1,1-dioxo-6-phenyl-thiazinan-2-yl]methyl]phenyl]cyclopropyl]-N,N-dimethyl-propanamide], 32.5 nM.
